# Results taken from PubChem BioAssay (NCI).
# Several values for one entry are separate records, joined by “and”; a condition that tells them apart may be missing. Equal values may be shown once.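 Exposure lasted 48 hours, with cells grown in 96-well plates and compounds tested at five concentrations. At the GI50, growth is halved. The concentration for full growth arrest is given as TGI.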
# Key:
# Assay in all cases: DTP human tumour cell line panel, 48 h
# [1] = system: PC-3 prostate
# [2] = system: OVCAR-8 ovarian
# [3] = system: SF-539 CNS
# [4] = system: HT29 colon
# [5] = system: EKVX NSCLC
# [6] = system: NCI-H23 lung
# [7] = system: OVCAR-4 ovarian
# [8] = system: MDA-MB-435
# [9] = system: SK-MEL-28 melanoma
# [10] = system: SNB-19 CNS
Structure (SMILES),GI50 [1],TGI [1],GI50 [2],TGI [2],GI50 [3],TGI [3],GI50 [4],TGI [4],GI50 [5],TGI [5],GI50 [6],TGI [6],GI50 [7],TGI [7],GI50 [8],TGI [8],GI50 [9],TGI [9],GI50 [10],TGI [10]
C=C1C(=O)O[C@H]2[C@H]1CC/C(COC(=O)CCCCCC(=O)OC/C1=C/CC[C@@]3(C)O[C@H]3[C@H]3OC(=O)C(=C)[C@@H]3CC1)=C\CC[C@@]1(C)O[C@@H]21,2240 nM,5.96 µM,2650 nM,9.71 µM,1.67 µM,3.58 µM,1.97 µM,3.84 µM,2.84 µM,11.5 µM,2.72 µM,9.98 µM,2.92 µM,15.3 µM,2580 nM,8.92 µM,2.45 µM,6.84 µM,4.09 µM,19.5 µM
N#Cc1nc(-c2ccc(F)cc2)oc1S(=O)(=O)N1CCCCC1,1810 nM,3.7 µM,3190 nM,24.1 µM,1.73 µM,3.12 µM,2.4 µM,5.42 µM,1.86 µM,3.96 µM,2.14 µM,4.92 µM,2.19 µM,4.76 µM,1820 nM,3.75 µM,1.75 µM,3.28 µM,11 µM,23 µM
O=C(O)C(Cc1cnc[nH]1)N1C(=O)c2ccccc2C1=O (stereo not given),,> 100 µM,,> 100 µM,,,,> 100 µM,,> 100 µM,,> 100 µM,,> 100 µM,,> 100 µM,,> 100 µM,,> 100 µM
O=C(O)C[C@H](O)C[C@H](O)/C=C/c1c(C2CC2)nc2ccccc2c1-c1ccc(F)cc1,508 nM and 423 nM,> 100 µM,7630 nM and 2170 nM,> 100 µM,43.7 µM and 5.46 µM,> 100 µM,62.2 µM and 8.24 µM,> 100 µM,23.1 µM and 5.16 µM,> 100 µM,8.75 µM and 3.31 µM,> 100 µM,22.8 µM and 8.04 µM,> 100 µM,14600 nM and 6040 nM,> 100 µM,27.4 µM and 7.7 µM,> 100 µM,,> 100 µM
CNC(=O)NCC1OC(n2cnc3c(NC(=O)Nc4ccccc4)ncnc32)C(O[Si](C)(C)C(C)(C)C)C1O[Si](C)(C)C(C)(C)C (stereo not given),2690 nM,> 100 µM,4010 nM,40.1 µM,3.07 µM,13 µM,2.02 µM,3.74 µM,3.7 µM,30.6 µM,3.17 µM,9.07 µM,3.44 µM,43.9 µM,3410 nM,29.1 µM,,,4.57 µM,> 100 µM
OCCCCC#Cc1ccccc1C#Cc1ccc(O)cc1,17200 nM,35.2 µM,17100 nM,34.9 µM,17.9 µM,35.9 µM,9.41 µM,22.2 µM,17 µM,37 µM,14.3 µM,28.7 µM,15.8 µM,31.9 µM,16100 nM,31 µM,14.2 µM,27.8 µM,19.2 µM,35.9 µM
COC(=O)c1c2c(c(C)[n+]([O-])c1C)C(=O)C=C(NCc1ccccc1)C2=O,379 nM,7.34 µM,408 nM,2.16 µM,0.711 µM,1.94 µM,0.384 µM,2.78 µM,1.14 µM,2.55 µM,0.632 µM,2.46 µM,0.283 µM,1.18 µM,202 nM,0.391 µM,1.63 µM,3.8 µM,1.42 µM,2.74 µM
O=C1CCc2c(sc3[nH]c(=S)n(-c4cc(C(F)(F)F)cc(C(F)(F)F)c4)c(=O)c23)C1,307 nM,2.35 µM,457 nM,> 37.8 µM,0.362 µM,1.7 µM,0.939 µM,> 33.6 µM,0.378 µM,5.14 µM,0.346 µM,2.24 µM,0.359 µM,1.72 µM,1220 nM,5.45 µM,0.459 µM,3.7 µM,0.384 µM,> 37 µM
COC(C)(C)[C@@H](O)[C@H](O)C[C@H](C)C1=C2CC[C@@H]3[C@@]4(C)CC[C@@H](OC(C)=O)C(C)(C)[C@@H]4C[C@@H](OC4OC(COC(C)=O)C(O)C(O)C4O)[C@@]3(C)[C@]2(C)CC1 (stereo not given in full),5680 nM,18.5 µM,12800 nM,26.3 µM,,,5.08 µM,16.9 µM,13 µM,26.2 µM,14.4 µM,27.4 µM,10.8 µM,23.1 µM,12300 nM,25.6 µM,11.7 µM,24.2 µM,12.2 µM,25.1 µM
O=S(=O)(NC1CCCCC1)c1ccc2c(c1)OCCOCCOCCOCCO2,,> 100 µM,,> 100 µM,,> 100 µM,,> 100 µM,,> 100 µM,,> 100 µM,,,,> 100 µM,,> 100 µM,,> 100 µM
O=C(NCCN1CCOCC1)OCc1nc2nc(Cl)nc(N3CCOCC3)c2[nH]1,3380 nM,> 100 µM,2090 nM,> 100 µM,0.402 µM,3.29 µM,> 100 µM,> 100 µM,> 100 µM,> 100 µM,3.56 µM,> 100 µM,9.69 µM,> 100 µM,651 nM,2.94 µM,> 100 µM,> 100 µM,4.18 µM,> 100 µM
COc1ccccc1/C=C1\COc2ccc(-c3ccccc3)cc2C1=O,4280 nM,> 100 µM,3270 nM,10.5 µM,2.61 µM,6.44 µM,,,5.59 µM,> 100 µM,4.38 µM,59.3 µM,3.74 µM,> 100 µM,2110 nM,> 100 µM,3.61 µM,13.3 µM,4.2 µM,> 100 µM
NC(=N\N=C/c1ccc(O)cc1)/C(N)=N\N=C/c1ccc(O)cc1,> 29000 nM,> 100 µM,51400 nM,> 100 µM,3.99 µM,> 100 µM,> 100 µM,> 100 µM,> 87.9 µM,> 100 µM,> 100 µM,> 100 µM,> 90.1 µM,> 100 µM,4880 nM,> 100 µM,> 100 µM,> 100 µM,62.5 µM,> 100 µM
COc1ccc([C@H](CC(=O)O)N2CCN(CCCc3ccc4c(n3)NCCC4)C2=O)cn1,> 100000 nM,> 100 µM,277 nM,> 40 µM,> 100 µM,> 100 µM,0.794 µM,> 100 µM,,,0.892 µM,4.07 µM,> 100 µM,> 100 µM,21.6 nM,0.0602 µM,> 28.7 µM,> 100 µM,0.426 µM,> 100 µM
CC1=CC2C(C(O)CC3(C)C2CC(C)C32OCOC23COCO3)C2(C)C/C(=C/O)C(=O)C=C12 (stereo not given),1710 nM,4.4 µM,1760 nM,3.73 µM,1.93 µM,3.64 µM,1.79 µM,5.01 µM,2.31 µM,7.48 µM,2 µM,3.83 µM,1.74 µM,3.83 µM,1780 nM,3.64 µM,1.87 µM,3.51 µM,3.22 µM,12 µM
COc1c(C(C)=O)c(OCCCCOc2c(C(C)=O)c(OC)c3ccoc3c2OC)c(OC)c2occc12,1690 nM,> 20.6 µM,2270 nM,7.85 µM,> 100 µM,> 100 µM,4.06 µM,> 100 µM,2.48 µM,> 100 µM,4.64 µM,> 100 µM,3.39 µM,> 100 µM,2140 nM,> 100 µM,2.32 µM,7.05 µM,> 28.9 µM,> 100 µM
Nc1ccn(C2CC(F)C(CO)O2)c(=O)n1 (stereo not given),> 100000 nM,> 100 µM,> 100000 nM,> 100 µM,> 100 µM,> 100 µM,> 100 µM,> 100 µM,> 100 µM,> 100 µM,> 100 µM,> 100 µM,> 100 µM,> 100 µM,> 100000 nM,> 100 µM,> 100 µM,> 100 µM,> 100 µM,> 100 µM
COC(=O)c1cc(-c2ccccc2)[nH]c1N/N=C/c1c(Cl)cccc1Cl,410 nM,,473 nM,> 100 µM,0.218 µM,0.605 µM,0.35 µM,,0.454 µM,> 37.3 µM,0.438 µM,15.4 µM,0.729 µM,> 28.6 µM,31.1 nM,0.119 µM,0.535 µM,17.4 µM,0.435 µM,15.3 µM
COc1ccc(/C=C(/c2ccccc2)[N+](=O)[O-])c(OC)c1,1320 nM,2.79 µM,1660 nM,5.14 µM,1.58 µM,2.94 µM,2.88 µM,10.3 µM,1.73 µM,3.98 µM,1.93 µM,4.76 µM,1.55 µM,2.92 µM,1450 nM,2.97 µM,1.5 µM,3.03 µM,1.65 µM,3.05 µM
CCOc1ccc2c(-c3ccnc(Nc4cc(OC)cc(C(F)(F)F)c4)n3)cnn2n1,> 15500 nM,> 25 µM,> 15400 nM,> 25 µM,5.96 µM,> 14.7 µM,8.4 µM,> 25 µM,> 25 µM,> 25 µM,> 21.9 µM,> 25 µM,> 15.8 µM,> 25 µM,903 nM,> 10.5 µM,> 23 µM,> 25 µM,> 25 µM,> 25 µM
CO/N=C(\COc1ccc2c(=O)c3ccccc3oc2c1)c1ccccc1,35000 nM,> 100 µM,30400 nM,97.2 µM,19 µM,50.6 µM,86.5 µM,> 100 µM,20.9 µM,50.6 µM,> 100 µM,> 100 µM,84.3 µM,> 100 µM,86700 nM,> 100 µM,> 100 µM,> 100 µM,54.5 µM,> 100 µM
CCCn1c2c(c3c(O)cccc31)C(=O)c1ccccc1-2,12600 nM,36 µM,22500 nM,> 100 µM,,,29.7 µM,> 100 µM,15.9 µM,> 100 µM,11.5 µM,> 100 µM,0.0961 µM,6.12 µM,> 100000 nM,> 100 µM,10.4 µM,39.1 µM,25.5 µM,> 100 µM
CCC(=O)N1C/C(=C/c2ccc(Cl)cc2)C(=O)/C(=C/c2ccc(Cl)cc2)C1,464 nM,2.4 µM,451 nM,2.12 µM,0.69 µM,1.91 µM,0.248 µM,0.622 µM,,,1.44 µM,3.74 µM,0.836 µM,2.86 µM,403 nM,1.64 µM,1.71 µM,3.33 µM,1.02 µM,2.45 µM
COc1cc2c(cc1OC)-c1ncc3c(OC)ccc(OC)c3c1C2,26500 nM,> 100 µM,2360 nM,38.2 µM,14 µM,33.4 µM,,,16.9 µM,54.9 µM,,,71.9 µM,> 100 µM,23400 nM,99.6 µM,> 100 µM,> 100 µM,42.3 µM,> 100 µM
COc1ccc(-c2cc(=O)n(-c3nc4ccccc4[nH]3)[nH]2)cc1OC,3800 nM,> 100 µM,4430 nM,63.5 µM,6.36 µM,48.9 µM,30.5 µM,> 100 µM,,,,,7.9 µM,> 100 µM,3870 nM,> 100 µM,13.9 µM,> 100 µM,7.06 µM,> 100 µM
